Test results as given in ChEMBL document CHEMBL4339183, “Discovery of N-indanyl benzamides as potent RORγt inverse agonists” (Eur J Med Chem, 2019).

Key:
[1] = molecular target: T1, Nuclear receptor ROR-gamma (Homo sapiens, UniProt P51449); assay: Inverse agonist activity at APC-labeled biotinylated RORgammat LBD (unknown origin) assessed as inhibition of N-(2-chloro-6-fluorobenzyl)-N-((20-methoxy-[1,10-biphenyl]-4-yl)methyl)benzenesulfonamide-induced co-activator europium-labeled biotinylated SRC1 peptide recruitment after 1 hr by LANCE-FRET assay
T1 sequence (P51449 whole entry): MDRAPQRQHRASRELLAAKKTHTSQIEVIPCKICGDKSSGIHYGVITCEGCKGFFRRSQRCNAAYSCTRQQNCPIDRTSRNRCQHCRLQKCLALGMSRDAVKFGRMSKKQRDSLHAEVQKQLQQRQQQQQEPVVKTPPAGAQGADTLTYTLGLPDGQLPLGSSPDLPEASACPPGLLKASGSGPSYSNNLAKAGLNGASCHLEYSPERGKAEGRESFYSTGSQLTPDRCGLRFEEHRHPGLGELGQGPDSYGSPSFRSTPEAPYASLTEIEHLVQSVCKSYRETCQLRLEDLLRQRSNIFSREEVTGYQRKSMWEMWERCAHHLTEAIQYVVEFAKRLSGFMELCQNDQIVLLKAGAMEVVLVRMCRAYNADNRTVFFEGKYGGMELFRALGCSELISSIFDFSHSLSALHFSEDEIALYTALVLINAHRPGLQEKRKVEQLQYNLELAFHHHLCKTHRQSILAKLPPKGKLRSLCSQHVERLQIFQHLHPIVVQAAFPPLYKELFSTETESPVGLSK

[2] = molecular target: T2, Nuclear receptor ROR-gamma (Mus musculus, UniProt P51450); assay: Inverse agonist activity at RORgammat in mouse CD4 positive T cells assessed as inhibition of Th17 cell differentiation by measuring IL-17 release after 4 days by cellular staining based flow cytometry
T2 sequence (P51450 whole entry): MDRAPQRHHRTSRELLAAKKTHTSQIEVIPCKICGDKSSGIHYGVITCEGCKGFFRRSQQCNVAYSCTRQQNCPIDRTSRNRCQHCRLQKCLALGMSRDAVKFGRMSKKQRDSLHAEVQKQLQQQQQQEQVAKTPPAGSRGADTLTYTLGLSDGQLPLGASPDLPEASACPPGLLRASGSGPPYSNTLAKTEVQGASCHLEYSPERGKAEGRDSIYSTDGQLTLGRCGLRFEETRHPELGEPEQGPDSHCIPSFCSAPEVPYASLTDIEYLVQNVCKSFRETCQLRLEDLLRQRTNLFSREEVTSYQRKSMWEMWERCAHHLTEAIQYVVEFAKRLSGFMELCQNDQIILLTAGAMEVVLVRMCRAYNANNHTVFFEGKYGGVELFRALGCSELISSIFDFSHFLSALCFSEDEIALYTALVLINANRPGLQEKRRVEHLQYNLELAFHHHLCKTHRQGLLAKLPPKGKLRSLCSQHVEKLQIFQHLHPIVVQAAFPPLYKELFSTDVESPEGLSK

For `N#Cc1cccc(C(=O)Nc2cccc3c2ccn3C2CCN(C(=O)C3CCCC3)CC2)c1`, the IC50 [1] was “Not Active”.
`N#Cc1cccc(C(=O)Nc2ccc3c(c2)[C@H](N2CC4CCC(C2)N4C(=O)C2CCCCC2)CC3)c1` was tested, and the IC50 [2] was “Not Active”.
In the case of `O=C(CC1CCOCC1)Nc1cccc2c1CCC2N1CC2CCC(C1)N2C(=O)C1CCCC1` (stereo not drawn), the IC50 ([1]; read-out: IC50) is reported as > 10 µM.
